Measured values taken from ChEMBL document CHEMBL3044731, “Insecticidal Effects of Organotin(IV) Compounds on Plutella Xylostella (L.) Larvae. II. Inhibitory Potencies Against Acetylcholinesterase and Evidence for Synergism in Tests With Bacillus Thuringiensis(BER.) and Malathion” (Met Based Drugs, 1994).
Values joined by “and” are separate entries in the source; they are usually repeats but may differ in a detail not shown here. Identical values can stand only once.

How the values were obtained:
Plutella xylostella = experiment: Insecticidal activity against drug-resistant Plutella xylostella (diamondback moth) fourth-instar larvae exposed to compound through topical application followed by transfer onto fresh Brassica leaves assessed as insect mortality measured 48 hr post compound application; assay type: functional
[1] = target: Acetylcholinesterase (Plutella xylostella) (UniProt Q8MZM0); experiment: Inhibition of AChE in drug-resistant Plutella xylostella (diamondback moth) fourth-instar larvae homogenates at 0.1 mM using acetylthiocholine iodide substrate by colorimetric method
Acetylcholinesterase [2] = target: T1, Acetylcholinesterase (Plutella xylostella, UniProt Q8MZM0); experiment: Inhibition of AChE in drug-sensitive Plutella xylostella (diamondback moth) fourth-instar larvae homogenates using acetylthiocholine iodide substrate by colorimetric method; conditions: read-out: I50
Acetylcholinesterase [3] = target: T1, Acetylcholinesterase; experiment: Inhibition of AChE in drug-resistant Plutella xylostella (diamondback moth) fourth-instar larvae homogenates using acetylthiocholine iodide substrate by colorimetric method; conditions: read-out: I50

T1 sequence (Q8MZM0 whole entry): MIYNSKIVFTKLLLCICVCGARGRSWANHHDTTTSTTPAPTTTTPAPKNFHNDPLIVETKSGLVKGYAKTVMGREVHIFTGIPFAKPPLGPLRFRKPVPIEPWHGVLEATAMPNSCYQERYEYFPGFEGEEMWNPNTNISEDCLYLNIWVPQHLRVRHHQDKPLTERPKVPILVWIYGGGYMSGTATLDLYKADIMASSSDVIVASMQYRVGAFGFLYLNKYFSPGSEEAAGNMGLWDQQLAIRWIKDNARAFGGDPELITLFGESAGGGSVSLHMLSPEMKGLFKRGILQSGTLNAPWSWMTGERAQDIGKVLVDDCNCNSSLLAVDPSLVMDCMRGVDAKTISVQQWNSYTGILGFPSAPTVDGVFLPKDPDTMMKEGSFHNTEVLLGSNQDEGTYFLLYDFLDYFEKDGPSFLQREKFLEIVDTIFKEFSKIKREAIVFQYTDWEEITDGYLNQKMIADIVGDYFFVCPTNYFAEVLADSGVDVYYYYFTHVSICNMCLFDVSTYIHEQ
Sequence of Acetylcholinesterase (Plutella xylostella) (Q8MZM0 entry or part of it): as the sequence (Q8MZM0 whole entry) above

Compound | LD50 (Plutella xylostella) | also measured
1-(cyclopentyldiphenylstannyl)-1H-1,2,4-triazole | 7.85 ×10⁻³ mol/L | –
1-(dicyclopentyl(phenyl)stannyl)-1H-1,2,4-triazole | 2.37 ×10⁻³ mol/L | –
1-(tricyclopentylstannyl)-1H-1,2,4-triazole | 0.27 ×10⁻³ mol/L | –
4-(2-oxo-2-(triphenylstannyloxy)ethoxy)benzoic acid | 0.69 ×10⁻³ mol/L | –
5-(triphenylstannylthio)-1,3,4-thiadiazol-2-amine | 2.31 ×10⁻³ mol/L | –
CCOC(=O)CC(SP(=S)(OC)OC)C(=O)OCC (configuration not stated) [MALATHION] | 42.6 ×10⁻³ mol/L | –
CNC(=O)ON=C(C)SC [METHOMYL] | 1.43 ×10⁻³ mol/L | –
(4-chlorophenyl)diphenylstannyl 2-(dimethylcarbamothioylthio)acetate | 2.36 ×10⁻³ mol/L | –
(4-chlorophenyl)diphenylstannyl 2-(phenylcarbamoylthio)acetate | – | inhibition [1]: 15.8%
DICYCLOPENTYL(PHENYL)STANNANOL | 3.7 ×10⁻³ mol/L | –
METHYL TRIPHENYLSTANNYL OXALATE | 4.5 ×10⁻³ mol/L | –
S-triphenylstannyl piperidine-1-carbothioate | – | inhibition [1]: 14.8%
TRIPHENYLSTANNYL 2-(DIMETHYLCARBAMOTHIOYLTHIO)ACETATE | – | IC50 (Acetylcholinesterase [2]): 26.2 mM
TRIPHENYLSTANNYL 2-(DIMETHYLCARBAMOYLTHIO)ACETATE | – | IC50 (Acetylcholinesterase [2]): 0.00543 mM; IC50 (Acetylcholinesterase [3]): 13.1 mM
TRIPHENYLSTANNYL 2-(PHENYLCARBAMOYLTHIO)ACETATE | 1.5 ×10⁻³ mol/L | inhibition [1]: 31.1%
TRIPHENYLSTANNYL 2-([sequence])ACETATE | 3.23 ×10⁻³ mol/L and 1.8 ×10⁻³ mol/L | inhibition [1]: 27.6% and 31.8% and 42.1%
TRIPHENYLSTANNYL 2-([sequence])ACETATE HYDRATE | 24 ×10⁻³ mol/L | –

Compound | LD50 (Plutella xylostella) | also measured
TRIPHENYLSTANNYL 2-([sequence])BENZOATE | 2.06 ×10⁻³ mol/L | –
TRIPHENYLSTANNYL 4-OXOPENTANOATE | 6.95 ×10⁻³ mol/L | –
TRIPHENYLSTANNYL ACETATE | 6.06 ×10⁻³ mol/L | –
[sequence] 2-([sequence])ACETATE | 1.78 ×10⁻³ mol/L | –
tricyclohexylstannyl 2-(piperidine-1-carbonothioylthio)acetate | 0.18 ×10⁻³ mol/L | –
tricyclohexylstannyl 2-(quinolin-8-yloxy)acetate | 0.57 ×10⁻³ mol/L | –
triphenylstannyl 2-(2,4-dichlorophenylcarbamoylthio)acetate | – | inhibition [1]: 13.4%
triphenylstannyl 2-(4-chlorophenoxy)acetate | 2.26 ×10⁻³ mol/L | –
triphenylstannyl 2-(4-chlorophenylcarbamoylthio)acetate | 0.9 ×10⁻³ mol/L | inhibition [1]: 74.6%
triphenylstannyl 2-(4-nitrophenoxy)acetate | 4.38 ×10⁻³ mol/L | –
triphenylstannyl 2-((2-isopropyl-5-methylcyclohexyloxy)carbonothioylthio)acetate | 3.62 ×10⁻³ mol/L | –
triphenylstannyl 2-(morpholine-4-carbonothioylthio)acetate | 1.66 ×10⁻³ mol/L | –
triphenylstannyl 2-(piperidine-1-carbonylthio)acetate | – | inhibition [1]: 24.4%
triphenylstannyl 4-(2-carbamoylhydrazono)pentanoate | 2.22 ×10⁻³ mol/L | –
triphenylstannyl 4-oxo-4-phenylbutanoate | 1.84 ×10⁻³ mol/L | –
triphenylstannyl 6-(piperidine-1-carbonylthio)hexanoate | – | inhibition [1]: 27%
